One test concerns the target PHD2 (EGLN1) (Homo sapiens (Human), UniProt Q9GZT9). As to the kind of experiment: HIF-PH assay (14CO2 capture), PHD2 enzyme inhibition. It is filed as biochemical. As to conditions: Table 1; individual measurement; read-out: IC50 (μM) PHD2. The source says: (§1) Ketoglutaric acid α-[1-^14C]-sodium salt, alpha-ketoglutaric acid sodium salt, and HPLC purified peptide may be obtained from commercial sources, e.g., Perkin-Elmer (Wellesley Mass.), Sigma-Aldrich, and SynPep Corp. (Dublin Calif.), respectively. Peptides for use in the assay may be fragments of HIFα as described above or as disclosed in International Publication WO 2005/118836, incorporated by reference herein. HIF-pH, e.g., PHD1 (EGLN2) or PHD2 (EGLN1), can be expressed in, e.g., insect Hi5 cells, and partially purified, e.g., through a SP ion exchange chromatography column. Enzyme activity is determined by capturing ^14CO2 using an assay described by Kivirikko and Myllyla (1982, Methods Enzymol. 82:245-304). Assay reactions contain 50 mM HEPES (pH 7.4), 100 μM α-ketoglutaric acid sodium salt, 0.30 mCi/mL ketoglutaric acid α-[1-^14C]-sodium salt, 40 μM FeSO4, 1 mM ascorbate, 1541.8 units/mL Catalase, with or without 50 μM peptide substrate and various concentrations of compound of the invention. Reactions are initiated by addition of HIF-PH enzyme.
(§2) The peptide-dependent percent turnover is calculated by subtracting percent turnover in the absence of peptide from percent turnover in the presence of substrate peptide. Percent inhibition and IC50 are calculated using peptide-dependent percent turnover at given inhibitor concentrations. Calculation of IC50 values for each inhibitor is conducted using GraFit software (Erithacus Software Ltd., Surrey UK).
(§3) The PHD2/PHD1 is the ratio of the IC50 of the compound for each enzyme.

In another test the target is PHD1 (EGLN2) (Homo sapiens (Human), UniProt Q96KS0). The test is described as follows: HIF-PH assay (14CO2 capture), PHD1 enzyme inhibition. It counts as biochemical. The settings on record: for IC50: individual measurement, read-out: IC50 (μM) PHD1.
Text: as §1, §2, §3

The mark [1] stands for this setting: Table 1, ratio of the IC50 of the compound for each enzyme.

Sequence of PHD1 (EGLN2) (Q96KS0 whole entry): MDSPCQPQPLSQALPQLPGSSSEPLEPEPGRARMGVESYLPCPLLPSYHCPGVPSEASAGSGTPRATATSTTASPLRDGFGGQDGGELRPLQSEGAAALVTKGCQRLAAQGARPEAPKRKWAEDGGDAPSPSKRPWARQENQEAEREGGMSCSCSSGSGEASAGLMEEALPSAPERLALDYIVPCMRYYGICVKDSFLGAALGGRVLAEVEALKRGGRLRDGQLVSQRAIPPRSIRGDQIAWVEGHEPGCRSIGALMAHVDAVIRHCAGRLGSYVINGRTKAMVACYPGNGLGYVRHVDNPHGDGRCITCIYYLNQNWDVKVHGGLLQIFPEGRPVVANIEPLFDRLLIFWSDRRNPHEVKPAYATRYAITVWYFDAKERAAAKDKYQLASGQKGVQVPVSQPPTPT
Sequence of PHD2 (EGLN1) (Q9GZT9 whole entry, the tested form may be a part): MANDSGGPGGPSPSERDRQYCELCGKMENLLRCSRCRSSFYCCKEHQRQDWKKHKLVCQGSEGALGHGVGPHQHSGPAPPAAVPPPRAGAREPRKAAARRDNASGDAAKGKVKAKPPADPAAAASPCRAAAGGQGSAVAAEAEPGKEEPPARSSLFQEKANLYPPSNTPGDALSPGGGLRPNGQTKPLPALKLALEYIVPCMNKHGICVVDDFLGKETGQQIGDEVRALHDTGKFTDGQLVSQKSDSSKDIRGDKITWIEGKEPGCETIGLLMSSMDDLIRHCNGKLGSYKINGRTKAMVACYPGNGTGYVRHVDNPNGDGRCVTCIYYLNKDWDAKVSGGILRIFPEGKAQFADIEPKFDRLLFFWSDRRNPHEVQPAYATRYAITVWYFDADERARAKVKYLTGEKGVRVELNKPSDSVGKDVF

For the compound `N#Cc1nc(C(=O)NCC2(C(=O)O)CCCC2)c(O)c2ccc(Oc3ccccc3)cc12` [Compound 19, 1-{[(1-Cyano-4-hydroxy-7-phenoxy-isoquinoline-3-carbonyl)-amino]-methyl}-cyclopentanecarboxylic acid], the values for the IC50 at PHD2 (EGLN1) and at PHD1 (EGLN2) (Table 1) were 22.8 µM and 1.73 µM, respectively. Moreover, the PHD2/PHD1 on PHD1 (EGLN2) (setting [1]) is 13.

In the case of `COc1ccc(Oc2ccc3c(O)c(C(=O)NCC(C)(C)C(=O)O)nc(C#N)c3c2)cc1` [Compound 20, 3{-[1-Cyano-4-hydroxy-7-(4-methoxy-phenoxy)-isoquinoline-3-carbonyl]-amino}-2,2-dimethyl-propionic acid], the values for the 50% inhibitory concentration (IC50) on PHD2 (EGLN1) and at PHD1 (EGLN2) (Table 1) were 5.22 µM and 0.35 µM, respectively. Also, the PHD2/PHD1 on PHD1 (EGLN2) (setting [1]) is on record as 15.

Consider `COc1ccc(Oc2ccc3c(O)c(C(=O)NC(C)(C)CC(=O)O)nc(C#N)c3c2)cc1` [Compound 21, 3{-[1-Cyano-4-hydroxy-7-(4-methoxy-phenoxy)-isoquinoline-3-carbonyl]-amino}-3-methyl-butyric acid], for which the half-maximal inhibitory concentration (IC50) (commonly the concentration that gives 50% inhibition) is 9.4 µM at PHD2 (EGLN1) and 0.24 µM at PHD1 (EGLN2) (Table 1). The PHD2/PHD1 on PHD1 (EGLN2) (setting [1]) is 39.

With `CC(C)(CNC(=O)c1nc(C#N)c2cc(Oc3c(F)cccc3F)ccc2c1O)C(=O)O` [Compound 22, 3-{[1-Cyano-7-(2,6-difluoro-phenoxy)-4-hydroxy-isoquinoline-3-carbonyl]-amino}-2,2-dimethyl-propionic acid], the results for the IC50 at PHD2 (EGLN1) and at PHD1 (EGLN2) (Table 1) were 15.1 µM and 0.93 µM, respectively. The PHD2/PHD1 on PHD1 (EGLN2) (setting [1]) stood at 16.

Consider `CC(C)(CNC(=O)c1ncc2cc(Oc3ccc(Cl)c(F)c3)ccc2c1O)C(=O)O` [Compound 23, 3-{[7-(4-Chloro-3-fluoro-phenoxy)-4-hydroxy-isoquinoline-3-carbonyl]-amino}-2,2-dimethyl-propionic acid], for which the results for the 50% inhibitory concentration (IC50) at PHD2 (EGLN1) and on PHD1 (EGLN2) (Table 1) were 12.7 µM and 2.77 µM, respectively. Moreover, the PHD2/PHD1 at PHD1 (EGLN2) (setting [1]) is listed as 5.

Consider `O=C(O)CCNC(=O)c1ncc2cc(Oc3cccnc3)ccc2c1O` [Compound 24, 3-{[4-Hydroxy-7-(pyridin-3-yloxy)-isoquinoline-3-carbonyl]-amino}-propionic acid], for which the IC50 on PHD2 (EGLN1) was found to be 23.3 µM; at PHD1 (EGLN2) (Table 1), 2.31 µM. In addition, the PHD2/PHD1 is reported as 10 at PHD1 (EGLN2) (setting [1]) and 10 on PHD1 (EGLN2) (Table 2 comparative data, IC50 PHD2/IC50 PHD1).

With `O=C(O)CCNC(=O)c1ncc2cc(Oc3ccccn3)ccc2c1O` [Compound 25, 3-{[4-Hydroxy-7-(pyridin-2-yloxy)-isoquinoline-3-carbonyl]-amino}-propionic acid], the half-maximal inhibitory concentration (IC50) worked out at 44.6 µM at PHD2 (EGLN1) and 4.57 µM on PHD1 (EGLN2) (Table 1). On PHD1 (EGLN2) (setting [1]), the PHD2/PHD1 is listed as 10.

For the compound `N#Cc1nc(C(=O)NCC2(C(=O)O)CCC2)c(O)c2ccc(Oc3c(F)cccc3F)cc12` [Compound 26, 1-({[1-Cyano-7-(2,6-difluoro-phenoxy)-4-hydroxy-isoquinoline-3-carbonyl]-amino}-methyl)-cyclobutanecarboxylic acid], the IC50 at PHD2 (EGLN1) is 5.43 µM; at PHD1 (EGLN2) (Table 1), 0.7 µM. The PHD2/PHD1 at PHD1 (EGLN2) (setting [1]) was found to be 8.

`CC(C)(CNC(=O)c1nc(C#N)c2cc(Oc3cccnc3)ccc2c1O)C(=O)O` [Compound 27, 3{-[1-Cyano-4-hydroxy-7-(pyridin-3-yloxy)-isoquinoline-3-carbonyl]-amino}-2,2-dimethyl-propionic acid]: the values for the IC50 on PHD2 (EGLN1) and at PHD1 (EGLN2) (Table 1) were 33.3 µM and 3.27 µM, respectively. On PHD1 (EGLN2) (setting [1]), the PHD2/PHD1 amounted to 10.

In the case of `N#Cc1nc(C(=O)NCC2(C(=O)O)CCC2)c(O)c2ccc(Oc3cccnc3)cc12` [Compound 28, 1-({[1-Cyano-4-hydroxy-7-(pyridin-3-yloxy)-isoquinoline-3-carbonyl]-amino}-methyl)-cyclobutanecarboxylic acid], the results for the IC50 on PHD2 (EGLN1) and on PHD1 (EGLN2) (Table 1) were 7.15 µM and 1.3 µM, respectively. Further, the PHD2/PHD1 on PHD1 (EGLN2) (setting [1]) worked out at 5.

With `N#Cc1nc(C(=O)NCC2(C(=O)O)CCS(=O)(=O)CC2)c(O)c2ccc(Oc3ccccc3)cc12` [Compound 29, 4-{[(1-Cyano-4-hydroxy-7-phenoxy-isoquinoline-3-carbonyl)-amino]-methyl}-1,1-dioxo-hexahydro-1λ^6-thiopyran-4-carboxylic acid], the IC50 at PHD2 (EGLN1) was found to be 37.3 µM; at PHD1 (EGLN2) (Table 1), 3.76 µM. Besides, the PHD2/PHD1 on PHD1 (EGLN2) (setting [1]) came to 9.9.

`N#Cc1nc(C(=O)NCC2(C(=O)O)CC[S+]([O-])CC2)c(O)c2ccc(Oc3ccccc3)cc12` (stereo not shown) [Compound 30, 4-{[(1-Cyano-4-hydroxy-7-phenoxy-isoquinoline-3-carbonyl)-amino]-methyl}-1-oxo-hexahydro-1λ^4-thiopyran-4-carboxylic acid]: the figures for the 50% inhibitory concentration (IC50) at PHD2 (EGLN1) and at PHD1 (EGLN2) (Table 1) were 200 µM and 25.1 µM, respectively. Moreover, the PHD2/PHD1 at PHD1 (EGLN2) (setting [1]) amounted to 8.

For `CC(C)(CNC(=O)c1nc(C#N)c2cc(Oc3cc(F)ccc3Cl)ccc2c1O)C(=O)O` [Compound 31, 3-{[7-(2-Chloro-5-fluoro-phenoxy)-1-cyano-4-hydroxy-isoquinoline-3-carbonyl]-amino}-2,2-dimethyl-propionic acid], the IC50 at PHD2 (EGLN1) is 4.2 µM; at PHD1 (EGLN2) (Table 1) it was 0.53 µM. Further, on PHD1 (EGLN2) (setting [1]), the PHD2/PHD1 worked out at 8.

For `N#Cc1nc(C(=O)NCC(CC(=O)O)c2ccc(Cl)cc2)c(O)c2ccc(Oc3ccccc3)cc12` (stereo not shown) [Compound 34, 3-(4-Chloro-phenyl)-4-[(1-cyano-4-hydroxy-7-phenoxy-isoquinoline-3-carbonyl)-amino]-butyric acid], the results for the IC50 on PHD2 (EGLN1) and at PHD1 (EGLN2) (Table 1) were 30.9 µM and 2.55 µM, respectively. For the same compound, the PHD2/PHD1 at PHD1 (EGLN2) (setting [1]) is on record as 12.

For the compound `N#Cc1nc(C(=O)NC[C@@H](O)CC(=O)O)c(O)c2ccc(Oc3ccccc3)cc12` [Compound 35, (S)-4-(1-Cyano-4-hydroxy-7-phenoxyisoquinoline-3-carboxamido)-3-hydroxybutanoic acid], the half-inhibitory concentration (IC50) at PHD2 (EGLN1) was 2.83 µM; on PHD1 (EGLN2) (Table 1) it was 0.23 µM. Moreover, the PHD2/PHD1 on PHD1 (EGLN2) (setting [1]) is on record as 12.

Turning to `N#Cc1nc(C(=O)NCC2(CC(=O)O)CCCCC2)c(O)c2ccc(Oc3ccccc3)cc12` [Compound 36, (1-{[(1-Cyano-4-hydroxy-7-phenoxy-isoquinoline-3-carbonyl)-amino]-methyl}-cyclohexyl)-acetic acid], the IC50 at PHD2 (EGLN1) turned out to be 56.6 µM; on PHD1 (EGLN2) (Table 1) it was 5.93 µM. Besides, the PHD2/PHD1 on PHD1 (EGLN2) (setting [1]) was 10.

`N#Cc1nc(C(=O)N[C@@H](CO)CC(=O)O)c(O)c2ccc(Oc3ccccc3)cc12` [Compound 37, (R)-3-(1-Cyano-4-hydroxy-7-phenoxyisoquinoline-3-carboxamido)-4-hydroxybutanoic acid]: the IC50 at PHD2 (EGLN1) is 159 µM; at PHD1 (EGLN2) (Table 1) it was 6.67 µM. Also, on PHD1 (EGLN2) (setting [1]), the PHD2/PHD1 came out at 24.

For the compound `CC(C)(CNC(=O)c1nc(C#N)c2cc(Oc3ccccc3Cl)ccc2c1O)C(=O)O` [Compound 38, 3-(7-(2-Chlorophenoxy)-1-cyano-4-hydroxyisoquinoline-3-carboxamido)-2,2-dimethylpropanoic acid], the IC50 on PHD2 (EGLN1) turned out to be 4.79 µM; on PHD1 (EGLN2) (Table 1), 0.24 µM. On PHD1 (EGLN2) (setting [1]), the PHD2/PHD1 is given as 20.

Regarding `CC(C)(CNC(=O)c1nc(C#N)c2cc(Oc3cccc(Cl)c3)ccc2c1O)C(=O)O` [Compound 39, 3-{[7-(3-Chloro-phenoxy)-1-cyano-4-hydroxy-isoquinoline-3-carbonyl]-amino}-2,2-dimethyl-propionic acid], the 50% inhibitory concentration (IC50) came out at 1.97 µM at PHD2 (EGLN1) and 0.18 µM at PHD1 (EGLN2) (Table 1). For the same compound, on PHD1 (EGLN2) (setting [1]), the PHD2/PHD1 turned out to be 11.

Turning to `CC(C)(CNC(=O)c1nc(C#N)c2cc(Oc3ccc(Cl)cc3)ccc2c1O)C(=O)O` [Compound 40, 3-{[7-(4-Chloro-phenoxy)-1-cyano-4-hydroxy-isoquinoline-3-carbonyl]-amino}-2,2-dimethyl-propionic acid], the values for the IC50 at PHD2 (EGLN1) and at PHD1 (EGLN2) (Table 1) were 4.01 µM and 0.3 µM, respectively. Also, the PHD2/PHD1 at PHD1 (EGLN2) (setting [1]) is listed as 13.

As for `CC(C)(CNC(=O)c1nc(C#N)c2cc(Oc3ccccc3F)ccc2c1O)C(=O)O` [Compound 41, 3{-[1-Cyano-7-(2-fluoro-phenoxy)-4-hydroxy-isoquinoline-3-carbonyl]-amino}-2,2-dimethyl-propionic acid], the figures for the IC50 at PHD2 (EGLN1) and on PHD1 (EGLN2) (Table 1) were 9.56 µM and 0.55 µM, respectively. For the same compound, the PHD2/PHD1 on PHD1 (EGLN2) (setting [1]) was 17.

Turning to `CC(C)(CNC(=O)c1nc(C#N)c2cc(Oc3cccc(F)c3)ccc2c1O)C(=O)O` [Compound 42, 3-(1-Cyano-7-(3-fluorophenoxy)-4-hydroxyisoquinoline-3-carboxamido)-2,2-dimethylpropanoic acid], the IC50 on PHD2 (EGLN1) came to 3.95 µM; at PHD1 (EGLN2) (Table 1) it was 0.36 µM. In addition, at PHD1 (EGLN2) (setting [1]), the PHD2/PHD1 is 11.

In the case of `CC(C)(CNC(=O)c1nc(C#N)c2cc(Oc3cccc4ccccc34)ccc2c1O)C(=O)O` [Compound 43, 3-(1-Cyano-4-hydroxy-7-(naphthalen-1-yloxy)isoquinoline-3-carboxamido)-2,2-dimethylpropanoic acid], the values for the half-maximal inhibitory concentration (IC50) on PHD2 (EGLN1) and on PHD1 (EGLN2) (Table 1) were 1.73 µM and 0.22 µM, respectively. Besides, the PHD2/PHD1 at PHD1 (EGLN2) (setting [1]) is on record as 8.

(Values after patent US9409892B2, “4-hydroxy-isoquinoline compounds as HIF hydroxylase inhibitors” (FIBROGEN, INC., priority 2012, dated 2016).)
